Results from patent US20170156324A1 (Dow AgroSciences LLC, priority 2015, published 2017).
Where “and” joins values, the source holds several entries; their conditions need not be identical. Identical values can stand only once.

Columns and labels:
Format in all cases: in vivo
Avena sp. (oats, AVESS) = assay: Field trial, post-emergence % visual weed control, AVESS; details: 76DAA, 18.75 g ai/ha
Description: (§1) Except for the trials utilizing the OD formulations, Actirob B was applied at 0.5 or 1.0 liters per hectare (L/ha), or Polyglycol 26-2 was applied at 0.5 to 1.0 L/ha in all respective single and tankmixture treatments being evaluated.
(§2) Trials were established as randomized complete blocks (RCBD) with three to four replicates. Individual treatments were 2-2.5 meters (m) wide and 6-20 m long. An untreated control was included in each trial. All trial sites had naturally occurring populations of weeds.
(§3) Herbicides were applied with backpack or bicycle sprayers using compressed air, nitrogen (N2) or carbon dioxide (CO2) as a propellant. All sprayers delivered a uniform spray pattern that provided thorough coverage of the foliage using a water volume of 150-300 L/ha. […]
(§4) The treated plots and control plots were rated blind at various intervals after application. […] The control of the target weeds was visually assessed as percent control, compared to an untreated control plot. […]
(§5) The efficacy of all treatments was assessed at 13-22 days after application (DAA) for an early season rating, 23-39 DAA for a mid-season rating, and 41-84 DAA for a late-season rating. The data were statistically analyzed using various statistical methods, generally including a Tukey's HSD Factorial Analysis of Variance with a significance level of 5%. […]

[1] = tested on: Matricaria recutita L. (wild chamomile, MATCH); assay: Field trial, post-emergence % visual weed control, MATCH
Description: as §1, §2
(§6) Herbicides were applied with backpack or bicycle sprayers using compressed air, nitrogen (N2) or carbon dioxide (CO2) as a propellant. All sprayers delivered a uniform spray pattern that provided thorough coverage of the foliage using a water volume of 150-300 L/ha. All herbicides were applied post-emergence in the spring to early-summer At the time of herbicide applications, winter wheat crops were at the six-leaf to three-tiller stage. Broadleaf and grass weeds were at a similar stage of growth at the time of herbicide application, typically from five leaf to 3 tiller depending on the weed species and time of year.
(§7) The treated plots and control plots were rated blind at various intervals after application. […] The control of the target weeds was visually assessed as percent control, compared to an untreated control plot. The assessments were based on a percent visual reduction in pest plant biomass and/or stand reduction of weed population.
(§8) The efficacy of all treatments was assessed at 13-22 days after application (DAA) for an early season rating, 23-39 DAA for a mid-season rating, and 41-84 DAA for a late-season rating. The data were statistically analyzed using various statistical methods, generally including a Tukey's HSD Factorial Analysis of Variance with a significance level of 5%.
(§9) Colby's equation was used to determine the herbicidal effects expected from the mixtures (Colby, S. R. Calculation of the synergistic and antagonistic response of herbicide combinations. Weeds 1967, 15, 20-22). A t-test (alpha=0.05) between Colby predictions and observed combinations was used to test for significant differences indicating synergy or antagonism using replicate data.
(§10) Expected=A+B+C−(AB+AC+BC)/100+(ABC)/10,000

[2] = tested on: Stellaria media (L.) Vill. (common chickweed, STEME); assay: Field trial, post-emergence % visual weed control, STEME
Description: as §1, §2, §6, §7, §8, §9, §10

[3] = tested on: Apera spica-venti (L.) Beauv. (windgrass, APESV); assay: Field trial, post-emergence % visual weed control, APESV; details: 12 g ai/ha
Description: as §1, §2, §6, §7, §8, §9, §10

[4] = tested on: Papaver rhoeas L. (common poppy, PAPRH); assay: Field trial, post-emergence % visual weed control, PAPRH; details: 56DAA, 22.5 g ai/ha
Description: as §1, §2, §3, §4, §5

[5] = tested on: Alopecurus myosuroides Huds. (blackgrass, ALOMY); assay: Field trial, post-emergence % visual weed control, ALOMY; details: 15DAA, 12 g ai/ha
Description: as §1, §2, §6, §7, §8
(§11) Colby's equation was used to determine the herbicidal effects expected from the mixtures (Colby, S. R. Calculation of the synergistic and antagonistic response of herbicide combinations. Weeds 1967, 15, 20-22). […]

[6] = tested on: Lolium L. sp. (ryegrass, LOLSS); assay: Field trial, post-emergence % visual weed control, LOLSS; details: 14DAA, 18.75 g ai/ha
Description: as §1, §2, §3, §4, §5

[7] = tested on: Centaurea cyanus (cornflower, CENCY); assay: Field trial, post-emergence % visual weed control, CENCY; details: 12 g ai/ha
Description: as §1, §2, §6, §7, §8, §9, §10

[8] = tested on: Solanum nigrum L. (black nightshade, SOLNI); assay: Field trial, post-emergence % visual weed control, SOLNI; details: 18.75 g ai/ha
Description: as §1, §2, §6, §7, §8, §9, §10

[9] = tested on: Lolium rigidum (rigid ryegrass, LOLRI); assay: Field trial, post-emergence % visual weed control, LOLRI; details: 28DAA, 22.5 g ai/ha
Description: as §1, §2, §3, §4, §5

[10] = tested on: Matricaria inodora (scentless mayweed, MATIN); assay: Field trial, post-emergence % visual weed control, MATIN; details: 14DAA, 12 g ai/ha
Description: as §1, §2, §6, §7, §8, §9, §10

[11] = tested on: Lamium purpureum L. (purple deadnettle, LAMPU); assay: Field trial, post-emergence % visual weed control, LAMPU
Description: as §1, §2, §6, §7, §8, §9, §10

[12] = tested on: Consolida regalis S. F. Gray (branching larkspur, CNSRE); assay: Field trial, post-emergence % visual weed control, CNSRE; details: 12 g ai/ha
Description: as §1, §2, §6, §7, §8, §9, §10

[13] = tested on: Agropyron repens L. (quackgrass, AGRRE); assay: Field trial, post-emergence % visual weed control, AGRRE; details: 14DAA, 12 g ai/ha
Description: as §1, §2, §6, §7, §8, §11

[14] = tested on: Avena macrocarpa Moench (wild red oat, AVEST); assay: Field trial, post-emergence % visual weed control, AVEST; details: 32DAA, 18.75 g ai/ha
Description: as §1, §2, §3, §4, §5

[15] = tested on: Echinochloa crus-galli (L.) P. Beauv. (barnyardgrass, ECHCG); assay: Field trial, post-emergence % visual weed control, ECHCG; details: 18.75 g ai/ha
Description: as §1, §2, §6, §7, §8, §9, §10

[16] = tested on: Viola arvensis Murr. (field violet, VIOAR); assay: Field trial, post-emergence % visual weed control, VIOAR; details: 12 g ai/ha
Description: as §1, §2, §6, §7, §8, §9, §10

[17] = tested on: Lolium multiflorum Lam. (Italian ryegrass, LOLMU); assay: Field trial, post-emergence % visual weed control, LOLMU; details: 22.5 g ai/ha
Description: as §1, §2, §3, §4, §5

[18] = tested on: Galium aparine L. (catchweed bedstraw, GALAP); assay: Field trial, post-emergence % visual weed control, GALAP; details: 28DAA, 12 g ai/ha
Description: as §1, §2, §6, §7, §8, §11

COc1cc(OC)n2nc(NS(=O)(=O)c3c(C(F)(F)F)ccnc3OC)nc2n1 [Pyroxsulam, N-(5,7-dimethoxy[1,2,4]triazolo[1,5-a]pyrimidin-2-yl)-2-methoxy-4-(trifluoromethyl)-pyridine-3-sulfonamide]
Mean % Weed Control (Avena sp. (oats, AVESS)): 62.0% | Mean % Weed Control ([1]; 15DAA, 9.6 g ai/ha): 12.8% | Mean % Weed Control ([1]; 61DAA, 9.6 g ai/ha): 16.3% and 23.7% | Mean % Weed Control ([1]; 61DAA, 12 g ai/ha): 20.0% and 26.3% | Mean % Weed Control ([1]; 78DAA, 9.6 g ai/ha): 17.0% | Mean % Weed Control ([1]; 78DAA, 12 g ai/ha): 18.8% | Mean % Weed Control ([2]; 15DAA, 9.6 g ai/ha): 0.0% | Mean % Weed Control ([2]; 15DAA, 12 g ai/ha): 0.0% | Mean % Weed Control ([2]; 61DAA, 9.6 g ai/ha): 5.0% and 11.1% | Mean % Weed Control ([2]; 61DAA, 12 g ai/ha): 3.8% and 9.7% | Mean % Weed Control ([2]; 78DAA, 9.6 g ai/ha): 16.3% | Mean % Weed Control ([2]; 78DAA, 12 g ai/ha): 13.8% | Mean % Weed Control ([3]; 14DAA): 72.5% | Mean % Weed Control ([3]; 28DAA): 88.8% | Mean % Weed Control ([3]; 56DAA): 94.5% | Mean % Weed Control [4]: 1.9% | Mean % Weed Control [5]: 27.5% | Mean % Weed Control [6]: 90.0% | Mean % Weed Control ([7]; 28DAA): 38.8% | Mean % Weed Control ([7]; 77DAA): 15.0% | Mean % Weed Control ([7]; 84DAA): 12.5% | Mean % Weed Control ([8]; 29DAA): 50.0% | Mean % Weed Control ([8]; 56DAA): 30.0% | Mean % Weed Control [9]: 72.5% | Mean % Weed Control [10]: 20.0% | Mean % Weed Control ([11]; 15DAA, 9.6 g ai/ha): 16.3% | Mean % Weed Control ([11]; 15DAA, 12 g ai/ha): 10.0% | Mean % Weed Control ([11]; 32DAA, 9.6 g ai/ha): 0.0% | Mean % Weed Control ([12]; 31DAA): 66.8% | Mean % Weed Control ([12]; 53DAA): 70.0% | Mean % Weed Control ([12]; 84DAA): 70% | Mean % Weed Control [13]: 37.5% | Mean % Weed Control [14]: 97.8% | Mean % Weed Control ([15]; 14DAA): 85.0% | Mean % Weed Control ([15]; 29DAA): 75.0% | Mean % Weed Control ([15]; 56DAA): 60.0% | Mean % Weed Control ([16]; 14DAA): 61.3% | Mean % Weed Control ([16]; 56DAA): 93.8% | Mean % Weed Control ([17]; 28DAA): 72.5% | Mean % Weed Control ([17]; 55DAA): 72.5% | Mean % Weed Control [18]: 89.5%
